Data reported in ChEMBL document CHEMBL4304811, “Development of a Water-Soluble Indolylmaleimide Derivative IM-93 Showing Dual Inhibition of Ferroptosis and NETosis” (ACS Med Chem Lett, 2019).
Calls of active or inactive are those of the source. No cut-off for these calls is given here.

Experiments:
[1] = target: Myosin-IIIb (Homo sapiens) (UniProt Q8WXR4); test: Binding affinity to wild-type human partial length MYO3B (M1 to D357 residues) expressed in bacterial expression system assessed as residual binding level at 10 uM by Kinomescan method relative to control
[2] = target: Mitogen-activated protein kinase 1 (Homo sapiens) (UniProt P28482); test: Binding affinity to wild-type human full length ERK2 (M1 to S360 residues) expressed in bacterial expression system assessed as residual binding level at 10 uM by Kinomescan method relative to control
Sequence of Mitogen-activated protein kinase 1 (Homo sapiens) (P28482 whole entry, the tested form may be a part): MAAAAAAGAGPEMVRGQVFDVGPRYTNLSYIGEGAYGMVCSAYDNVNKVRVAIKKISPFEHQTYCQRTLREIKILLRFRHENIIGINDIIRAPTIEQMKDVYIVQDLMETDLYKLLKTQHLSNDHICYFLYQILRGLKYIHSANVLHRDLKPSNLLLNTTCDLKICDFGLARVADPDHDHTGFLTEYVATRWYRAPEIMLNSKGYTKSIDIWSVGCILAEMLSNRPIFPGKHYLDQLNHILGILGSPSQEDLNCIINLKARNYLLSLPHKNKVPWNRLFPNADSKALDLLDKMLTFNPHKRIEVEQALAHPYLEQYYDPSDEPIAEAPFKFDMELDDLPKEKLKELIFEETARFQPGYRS

[3] = target: Serine/threonine-protein kinase PAK 4 (Homo sapiens) (UniProt O96013); test: Binding affinity to wild-type human partial length PAK4 (Q144 to R438 residues) expressed in bacterial expression system assessed as residual binding level at 10 uM by Kinomescan method relative to control
[4] = target: Myosin light chain kinase, smooth muscle (Homo sapiens) (UniProt Q15746); test: Binding affinity to wild-type human full length MYLK (M854 to E1845 residues) expressed in mammalian expression system assessed as residual binding level at 10 uM by Kinomescan method relative to control
[5] = target: NUAK family SNF1-like kinase 2 (Homo sapiens) (UniProt Q9H093); test: Binding affinity to wild-type human partial length SNARK (P22 to A333 residues) expressed in mammalian expression system assessed as residual binding level at 10 uM by Kinomescan method relative to control
[6] = target: Activin receptor type-1-like (Homo sapiens) (UniProt P37023); test: Binding affinity to wild-type human ACVRL1 (L164 to Q503 residues) expressed in bacterial expression system assessed as residual binding level at 10 uM by Kinomescan method relative to control
Sequence of Activin receptor type-1-like (Homo sapiens) (P37023 whole entry, the tested form may be a part): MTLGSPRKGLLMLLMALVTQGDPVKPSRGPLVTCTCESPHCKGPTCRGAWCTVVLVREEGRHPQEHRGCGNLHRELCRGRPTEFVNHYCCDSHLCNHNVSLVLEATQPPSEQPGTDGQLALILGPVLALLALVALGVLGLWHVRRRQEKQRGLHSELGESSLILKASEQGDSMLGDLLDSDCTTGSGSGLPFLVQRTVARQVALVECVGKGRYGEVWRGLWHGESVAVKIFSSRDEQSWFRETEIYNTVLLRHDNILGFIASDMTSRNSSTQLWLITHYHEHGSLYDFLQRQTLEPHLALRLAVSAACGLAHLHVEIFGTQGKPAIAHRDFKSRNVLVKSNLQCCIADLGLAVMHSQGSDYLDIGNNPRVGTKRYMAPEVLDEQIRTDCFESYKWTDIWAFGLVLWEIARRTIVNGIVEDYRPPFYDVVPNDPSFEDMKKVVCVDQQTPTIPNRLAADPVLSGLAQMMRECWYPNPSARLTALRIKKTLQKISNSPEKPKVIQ

[7] = target: Mitogen-activated protein kinase kinase kinase kinase 4 (Homo sapiens) (UniProt O95819); test: Binding affinity to wild-type human partial length MAP4K4 (M1 to R310 residues) expressed in bacterial expression system assessed as residual binding level at 10 uM by Kinomescan method relative to control
[8] = target: Serine/threonine-protein kinase SIK3 (Homo sapiens) (UniProt Q9Y2K2); test: Binding affinity to wild-type human partial length QSK (A90 to L395 residues) expressed in mammalian expression system assessed as residual binding level at 10 uM by Kinomescan method relative to control
Sequence of Serine/threonine-protein kinase SIK3 (Homo sapiens) (Q9Y2K2 whole entry, looked up, the tested form may be a part): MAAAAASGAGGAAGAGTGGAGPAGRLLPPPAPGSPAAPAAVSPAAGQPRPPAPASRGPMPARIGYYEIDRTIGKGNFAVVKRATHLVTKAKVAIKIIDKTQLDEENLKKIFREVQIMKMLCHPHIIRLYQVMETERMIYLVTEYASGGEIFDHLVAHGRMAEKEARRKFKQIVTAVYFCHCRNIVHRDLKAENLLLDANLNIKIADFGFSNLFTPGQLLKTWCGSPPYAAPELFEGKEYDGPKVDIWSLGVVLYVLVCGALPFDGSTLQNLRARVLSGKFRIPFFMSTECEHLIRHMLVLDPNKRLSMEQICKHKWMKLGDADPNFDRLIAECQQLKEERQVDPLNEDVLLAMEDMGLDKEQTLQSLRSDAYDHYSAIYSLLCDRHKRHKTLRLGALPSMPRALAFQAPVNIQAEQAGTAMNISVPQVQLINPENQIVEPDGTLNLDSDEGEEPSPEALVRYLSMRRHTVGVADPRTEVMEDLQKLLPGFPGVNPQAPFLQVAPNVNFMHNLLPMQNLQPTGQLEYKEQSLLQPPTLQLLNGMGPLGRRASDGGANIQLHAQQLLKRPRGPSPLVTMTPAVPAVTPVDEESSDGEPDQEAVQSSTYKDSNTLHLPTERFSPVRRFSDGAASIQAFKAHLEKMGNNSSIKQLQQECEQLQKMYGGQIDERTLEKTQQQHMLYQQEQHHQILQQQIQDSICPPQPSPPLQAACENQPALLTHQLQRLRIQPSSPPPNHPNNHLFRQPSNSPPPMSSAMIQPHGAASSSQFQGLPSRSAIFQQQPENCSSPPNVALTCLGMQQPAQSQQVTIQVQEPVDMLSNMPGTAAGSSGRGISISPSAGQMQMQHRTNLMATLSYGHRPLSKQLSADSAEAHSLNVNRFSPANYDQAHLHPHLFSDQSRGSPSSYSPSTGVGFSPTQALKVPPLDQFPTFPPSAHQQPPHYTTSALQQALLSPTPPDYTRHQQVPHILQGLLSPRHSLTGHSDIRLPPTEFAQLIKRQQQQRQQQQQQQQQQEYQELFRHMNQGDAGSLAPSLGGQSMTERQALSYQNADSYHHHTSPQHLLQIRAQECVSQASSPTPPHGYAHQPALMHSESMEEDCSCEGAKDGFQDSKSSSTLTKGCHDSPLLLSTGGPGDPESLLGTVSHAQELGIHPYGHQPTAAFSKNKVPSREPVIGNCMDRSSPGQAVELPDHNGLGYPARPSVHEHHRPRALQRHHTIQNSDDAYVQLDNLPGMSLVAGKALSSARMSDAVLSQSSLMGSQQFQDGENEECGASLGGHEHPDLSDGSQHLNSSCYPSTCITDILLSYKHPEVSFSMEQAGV

[9] = system: Mast/stem cell growth factor receptor Kit (Homo sapiens), P10721 [V559D]; test: Binding affinity to human partial length KIT V559D mutant (Y545 to D952 residues) expressed in bacterial expression system assessed as residual binding level at 10 uM by Kinomescan method relative to control
[10] = target: Tyrosine-protein kinase Mer (Homo sapiens) (UniProt Q12866); test: Binding affinity to wild-type human partial length MERTK (R557 to L884 residues) expressed in bacterial expression system assessed as residual binding level at 10 uM by Kinomescan method relative to control
[11] = target: High affinity nerve growth factor receptor (Homo sapiens) (UniProt P04629); test: Binding affinity to wild-type human partial length TRKA (G475 to G790 residues) expressed in mammalian expression system assessed as residual binding level at 10 uM by Kinomescan method relative to control
Sequence of High affinity nerve growth factor receptor (Homo sapiens) (P04629 33-796 limits assumed): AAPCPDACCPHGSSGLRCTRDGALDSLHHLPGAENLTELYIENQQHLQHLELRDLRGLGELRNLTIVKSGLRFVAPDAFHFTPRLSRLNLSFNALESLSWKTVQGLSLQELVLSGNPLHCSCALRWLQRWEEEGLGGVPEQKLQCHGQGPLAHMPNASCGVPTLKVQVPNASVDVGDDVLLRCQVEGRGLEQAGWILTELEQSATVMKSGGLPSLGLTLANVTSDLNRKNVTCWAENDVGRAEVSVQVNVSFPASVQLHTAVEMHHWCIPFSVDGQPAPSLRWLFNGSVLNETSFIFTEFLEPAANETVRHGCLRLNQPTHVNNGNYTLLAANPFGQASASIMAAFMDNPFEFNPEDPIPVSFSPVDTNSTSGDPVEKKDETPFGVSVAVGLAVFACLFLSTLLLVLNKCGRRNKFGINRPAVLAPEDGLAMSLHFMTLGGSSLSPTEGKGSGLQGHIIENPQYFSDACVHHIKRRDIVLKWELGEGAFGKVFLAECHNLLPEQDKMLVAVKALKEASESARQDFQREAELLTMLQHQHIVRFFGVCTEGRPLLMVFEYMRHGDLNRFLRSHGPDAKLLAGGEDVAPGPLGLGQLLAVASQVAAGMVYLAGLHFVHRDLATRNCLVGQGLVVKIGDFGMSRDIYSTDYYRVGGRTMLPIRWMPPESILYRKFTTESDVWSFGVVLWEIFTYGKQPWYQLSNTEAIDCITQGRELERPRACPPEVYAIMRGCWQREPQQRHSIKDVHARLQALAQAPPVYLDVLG

[12] = target: Fibroblast growth factor receptor 3 (Homo sapiens) (UniProt P22607); test: Binding affinity to wild-type human partial length FGFR3 (R442 to S771 residues) expressed in bacterial expression system assessed as residual binding level at 10 uM by Kinomescan method relative to control
Sequence of Fibroblast growth factor receptor 3 (Homo sapiens) (P22607 23-806 limits assumed): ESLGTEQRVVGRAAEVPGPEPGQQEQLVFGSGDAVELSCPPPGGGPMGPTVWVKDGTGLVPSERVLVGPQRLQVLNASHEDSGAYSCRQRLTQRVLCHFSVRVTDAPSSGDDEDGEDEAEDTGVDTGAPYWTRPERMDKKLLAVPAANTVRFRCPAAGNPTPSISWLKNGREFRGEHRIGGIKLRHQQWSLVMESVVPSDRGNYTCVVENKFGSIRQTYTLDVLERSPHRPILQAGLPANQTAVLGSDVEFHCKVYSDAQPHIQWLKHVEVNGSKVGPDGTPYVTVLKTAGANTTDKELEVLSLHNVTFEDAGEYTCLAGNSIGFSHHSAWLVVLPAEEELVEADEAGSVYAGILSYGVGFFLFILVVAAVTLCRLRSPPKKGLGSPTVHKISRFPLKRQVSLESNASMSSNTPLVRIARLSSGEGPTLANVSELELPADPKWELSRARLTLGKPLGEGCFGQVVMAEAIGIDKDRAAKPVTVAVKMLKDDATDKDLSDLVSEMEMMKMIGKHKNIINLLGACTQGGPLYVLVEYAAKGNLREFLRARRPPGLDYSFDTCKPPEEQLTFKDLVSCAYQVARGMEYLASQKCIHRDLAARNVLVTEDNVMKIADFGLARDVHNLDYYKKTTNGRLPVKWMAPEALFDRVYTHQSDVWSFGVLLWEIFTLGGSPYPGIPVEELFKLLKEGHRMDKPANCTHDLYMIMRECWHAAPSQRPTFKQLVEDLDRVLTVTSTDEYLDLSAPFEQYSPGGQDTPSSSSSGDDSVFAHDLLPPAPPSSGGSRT

[13] = target: Tyrosine-protein kinase Tec (Homo sapiens) (UniProt P42680); test: Binding affinity to wild-type human partial length TEC (L341 to D620 residues) expressed in bacterial expression system assessed as residual binding level at 10 uM by Kinomescan method relative to control
[14] = target: Ribosomal protein S6 kinase alpha-4 (Homo sapiens) (UniProt O75676); test: Binding affinity to wild-type human partial length N-terminal RPS6KA4 kinase domain 1 expressed in bacterial expression system assessed as residual binding level at 10 uM by Kinomescan method relative to control
Sequence of Ribosomal protein S6 kinase alpha-4 (Homo sapiens) (O75676 whole entry, looked up, the tested form may be a part): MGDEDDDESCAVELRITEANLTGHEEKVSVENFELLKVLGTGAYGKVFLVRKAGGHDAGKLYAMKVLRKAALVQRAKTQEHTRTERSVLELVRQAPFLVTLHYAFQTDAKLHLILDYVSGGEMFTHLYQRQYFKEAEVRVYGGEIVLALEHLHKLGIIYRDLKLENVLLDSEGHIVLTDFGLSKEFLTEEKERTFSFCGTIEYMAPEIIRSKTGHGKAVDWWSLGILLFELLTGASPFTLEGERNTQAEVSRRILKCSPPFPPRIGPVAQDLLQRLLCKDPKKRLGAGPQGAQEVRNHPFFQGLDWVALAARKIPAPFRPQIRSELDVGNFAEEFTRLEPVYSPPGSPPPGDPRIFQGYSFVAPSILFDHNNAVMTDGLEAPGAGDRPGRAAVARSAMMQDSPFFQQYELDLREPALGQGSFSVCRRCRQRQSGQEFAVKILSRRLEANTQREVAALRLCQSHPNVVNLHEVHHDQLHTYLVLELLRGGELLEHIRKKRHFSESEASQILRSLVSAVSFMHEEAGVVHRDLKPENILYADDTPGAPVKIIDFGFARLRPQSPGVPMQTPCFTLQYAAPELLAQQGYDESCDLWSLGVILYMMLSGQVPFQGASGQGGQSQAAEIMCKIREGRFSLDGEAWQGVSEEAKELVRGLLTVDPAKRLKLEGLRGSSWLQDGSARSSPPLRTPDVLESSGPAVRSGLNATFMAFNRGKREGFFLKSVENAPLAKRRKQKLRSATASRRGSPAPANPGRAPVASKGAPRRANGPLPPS

[15] = system: Epidermal growth factor receptor (Homo sapiens), P00533 [UNDEFINED MUTATION]; test: Binding affinity to human partial length EGFR E746-A750del mutant expressed in bacterial expression system assessed as residual binding level at 10 uM by Kinomescan method relative to control
[16] = target: Tyrosine-protein kinase ABL2 (Homo sapiens) (UniProt P42684); test: Binding affinity to wild-type human ABL2 (A248 to G542 residues) expressed in bacterial expression system assessed as residual binding level at 10 uM by Kinomescan method relative to control
[17] = target: Protein-arginine deiminase type-4 (Homo sapiens) (UniProt Q9UM07); test: Inhibition of recombinant human PAD4 at 200 uM using N-alpha-benzoyl-L-arginine ethyl ester as substrate by fluorescence based analysis
[18] = system: Epidermal growth factor receptor (Homo sapiens), P00533 [G719S]; test: Binding affinity to human partial length EGFR G719S mutant (R669 to V1011 residues) expressed in bacterial expression system assessed as residual binding level at 10 uM by Kinomescan method relative to control
[19] = target: Receptor-type tyrosine-protein kinase FLT3 (Homo sapiens) (UniProt P36888); test: Binding affinity to wild-type human partial length FLT3 (V592 to Y969 residues) expressed in bacterial expression system assessed as residual binding level at 10 uM by Kinomescan method relative to control
[20] = target: 5'-AMP-activated protein kinase catalytic subunit alpha-1 (Homo sapiens) (UniProt Q13131); test: Binding affinity to wild-type human partial length AMPK alpha1 (M1 to E306 residues) expressed in bacterial expression system assessed as residual binding level at 10 uM by Kinomescan method relative to control
[21] = target: Dual specificity tyrosine-phosphorylation-regulated kinase 2 (Homo sapiens) (UniProt Q92630); test: Binding affinity to wild-type human full length DYRK2 (M1 to S528 residues) expressed in mammalian expression system assessed as residual binding level at 10 uM by Kinomescan method relative to control
[22] = system: Receptor-type tyrosine-protein kinase FLT3 (Homo sapiens), P36888 [UNDEFINED MUTATION]; test: Binding affinity to human partial length FLT3 ITD mutant expressed in bacterial expression system assessed as residual binding level at 10 uM by Kinomescan method relative to control
[23] = target: Serine/threonine-protein kinase 17B (Homo sapiens) (UniProt O94768); test: Binding affinity to wild-type human full length DRAK2 (M1 to C372 residues) expressed in bacterial expression system assessed as residual binding level at 10 uM by Kinomescan method relative to control
[24] = system: Tyrosine-protein kinase ABL1 (Homo sapiens), P00519 [F317L]; test: Binding affinity to human phosphorylated ABL1 F317L mutant (S229 to K512 residues) expressed in mammalian expression system assessed as residual binding level at 10 uM by Kinomescan method relative to control
[25] = target: Rhodopsin kinase GRK1 (Homo sapiens) (UniProt Q15835); test: Binding affinity to wild-type human full length GRK1 (M1 to S563 residues) expressed in mammalian expression system assessed as residual binding level at 10 uM by Kinomescan method relative to control
Sequence of Rhodopsin kinase GRK1 (Homo sapiens) (Q15835 whole entry, the tested form may be a part): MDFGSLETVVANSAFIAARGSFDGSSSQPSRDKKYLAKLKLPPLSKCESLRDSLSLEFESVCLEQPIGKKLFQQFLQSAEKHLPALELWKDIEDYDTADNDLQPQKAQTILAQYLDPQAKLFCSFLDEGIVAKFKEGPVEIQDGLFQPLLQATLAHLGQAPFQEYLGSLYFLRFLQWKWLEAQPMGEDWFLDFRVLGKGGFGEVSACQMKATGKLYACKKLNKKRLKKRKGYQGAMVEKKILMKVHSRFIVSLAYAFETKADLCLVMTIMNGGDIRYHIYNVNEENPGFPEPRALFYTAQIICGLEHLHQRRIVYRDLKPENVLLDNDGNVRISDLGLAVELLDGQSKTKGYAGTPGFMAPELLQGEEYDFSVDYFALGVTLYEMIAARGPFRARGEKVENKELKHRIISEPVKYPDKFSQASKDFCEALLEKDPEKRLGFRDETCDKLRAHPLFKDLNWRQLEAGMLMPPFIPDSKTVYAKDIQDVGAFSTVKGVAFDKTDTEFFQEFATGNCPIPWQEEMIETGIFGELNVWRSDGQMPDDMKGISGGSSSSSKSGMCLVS

Structure (SMILES): CC(C)N1C(=O)C(NCCCN(C)C)=C(c2cn(C)c3ccccc23)C1=O.Cl
- Activity [1]: 90%
- Activity [2]: 95%
- Activity [3]: 89%
- Activity [4]: 75%
- Activity [5]: 79%
- Activity [6]: 100%
- Activity [7]: 95%
- Activity [8]: 93%
- Activity [9]: 96%
- Activity [10]: 71%
- Activity [11]: 100%
- Activity [12]: 100%
- Activity [13]: 99%
- Activity [14]: 100%
- Activity [15]: 100%
- Activity [16]: 98%
- inhibition [17]: inactive
- Activity [18]: 100%
- Activity [19]: 100%
- Activity [20]: 93%
- Activity [21]: 87%
- Activity [22]: 82%
- Activity [23]: 91%
- Activity [24]: 83%
- Activity [25]: 96%
